ChEMBL document CHEMBL4376886, “Design, Synthesis, and Evaluation of Novel Enterovirus 71 Inhibitors as Therapeutic Drug Leads for the Treatment of Human Hand, Foot, and Mouth Disease” (J Med Chem, 2020)

Legend:
[1] = Apparent half-life of the terminal disposition phase in Sprague-Dawley rat at 5 mg/kg, po administered as single dose measured upto 24 hrs by LC-MS/MS analysis; assay type: ADME, organism-based; conditions: in vivo, read-out: t1/2 lambda z (converted)
[2] = Inhibition of capsid protein VP1 in Enterovirus 71 (FY)-Luc infected in human RD cells assessed as reduction in virus-induced cell death preincubated for 24 hrs followed by […] substrate addition and measured after 5 mins by chemiluminescence analysis; assay type: cell-based, Enterovirus A71; conditions: Enterovirus A
[3] = Cytotoxicity against human RD cells assessed as reduction in cell viability incubated for 24 hrs by MTT assay; conditions: rd
[4] = Acute toxicity in juvenile zebrafish assessed as fatality rate at 200 uM after 24 hrs; conditions: in vivo
[5] = Acute toxicity in juvenile zebrafish assessed as fatality rate at 20 uM after 24 hrs; conditions: in vivo
[6] = Subacute toxicity in PND4 Sprague-Dawley rat assessed as animal survival at 30 to 50 mg/kg/day, po administered via gavage for 14 days and measured for 28 days; assay type: organism-based; conditions: in vivo
[7] = Subacute toxicity in PND4 Sprague-Dawley rat assessed as irreversible opaqueness of lens at 30 to 50 mg/kg/day, po administered via gavage for 14 days and measured for 28 days; assay type: organism-based; conditions: in vivo, 672 h
[8] = Subacute toxicity in PND14 Sprague-Dawley rat assessed as development of opaque lens at 100 mg/kg/day, po administered via gavage for 14 days and measured for 28 days; assay type: organism-based; conditions: in vivo, 672 h
[9] = Subacute toxicity in PND14 Sprague-Dawley rat assessed as quadriplegia at 100 mg/kg/day, po administered via gavage for 14 days and measured for 28 days; assay type: organism-based; conditions: in vivo, 672 h
[10] = Subacute toxicity in PND14 Sprague-Dawley rat assessed as hair loss at 100 mg/kg/day, po administered via gavage for 14 days and measured for 28 days; assay type: organism-based; conditions: in vivo, 672 h
[11] = Subacute toxicity in PND14 Sprague-Dawley rat assessed as lens fiber loosening and vacuolar degeneration at 100 mg/kg/day, po administered via gavage for 14 days and measured at day 28 by hematoxylin and eosin staining based histopathological analysis; assay type: organism-based; conditions: in vivo, 336 h
[12] = Subacute toxicity in PND21 Sprague-Dawley rat assessed as development of opaque lens at 100 mg/kg/day, po administered via gavage for 14 days and measured for 28 days; assay type: organism-based; conditions: in vivo, 672 h
[13] = Metabolic stability in Sprague-Dawley rat liver microsomes assessed as intrinsic clearance measured upto 300 mins in presence of NADP+ by HPLC analysis
[14] = Bioavailability in Sprague-Dawley rat at 5 mg/kg, ip administered as single dose measured upto 24 hrs by LC-MS/MS analysis; conditions: in vivo
[15] = AUC (0 to t) in Sprague-Dawley rat at 1 mg/kg, iv administered as single dose measured upto 24 hrs by LC-MS/MS analysis; assay type: ADME, organism-based; conditions: in vivo
[16] = AUC (0 to t) in Sprague-Dawley rat at 5 mg/kg, po administered as single dose measured upto 24 hrs by LC-MS/MS analysis; assay type: ADME, organism-based; conditions: in vivo
[17] = Apparent half-life of the terminal disposition phase in Sprague-Dawley rat at 1 mg/kg, iv administered as single dose measured upto 24 hrs by LC-MS/MS analysis; assay type: ADME, organism-based; conditions: in vivo, read-out: t1/2 lambda z (converted)
[18] = Tmax in Sprague-Dawley rat at 5 mg/kg, po administered as single dose measured upto 24 hrs by LC-MS/MS analysis; assay type: ADME, organism-based; conditions: in vivo
[19] = Apparent clearance during terminal phase in Sprague-Dawley rat at 1 mg/kg, iv administered as single dose measured upto 24 hrs by LC-MS/MS analysis; assay type: ADME, organism-based; conditions: in vivo
[20] = Apparent clearance during terminal phase in Sprague-Dawley rat at 5 mg/kg, po administered as single dose measured upto 24 hrs by LC-MS/MS analysis; assay type: ADME, organism-based; conditions: in vivo, read-out: CLz/F (converted)
[21] = Cmax in Sprague-Dawley rat at 1 mg/kg, iv administered as single dose measured upto 24 hrs by LC-MS/MS analysis; assay type: ADME, organism-based; design: dose 1 mg/kg, route intravenous; conditions: in vivo
[22] = Cmax in Sprague-Dawley rat at 5 mg/kg, po administered as single dose measured upto 24 hrs by LC-MS/MS analysis; assay type: ADME, organism-based; design: dose 5 mg/kg, route oral; conditions: in vivo
[23] = Oral bioavailability in Sprague-Dawley rat at 5 mg/kg administered as single dose measured upto 24 hrs by LC-MS/MS analysis; assay type: ADME, organism-based; conditions: in vivo
Enterovirus A71 = assay: Antiviral activity against Enterovirus 71 genotype C4 infected in BALB/c mouse assessed as protection rate at 10 mg/kg/day, ip qd for 7 days administration starting from 48 hrs post-infection and measured for 14 days; assay type: functional
[24] = Acute toxicity in juvenile zebrafish assessed as fatality rate at 50 uM after 24 hrs; conditions: in vivo
[25] = Acute toxicity in juvenile zebrafish assessed as fatality rate at 100 uM after 24 hrs; conditions: in vivo
[26] = Acute toxicity in juvenile zebrafish assessed as fatality rate at 20 uM after 48 hrs; conditions: in vivo
[27] = Acute toxicity in juvenile zebrafish assessed as fatality rate at 50 uM after 48 hrs; conditions: in vivo
[28] = Acute toxicity in juvenile zebrafish assessed as fatality rate at 100 uM after 48 hrs; conditions: in vivo
[29] = Acute toxicity in juvenile zebrafish assessed as fatality rate at 200 uM after 48 hrs; conditions: in vivo
[30] = Subacute toxicity in PND7 Sprague-Dawley rat assessed as animal survival at 30 to 50 mg/kg/day, po administered via gavage for 14 days and measured for 28 days; assay type: organism-based; conditions: in vivo
[31] = Subacute toxicity in PND7 Sprague-Dawley rat assessed as irreversible opaqueness of lens at 30 to 50 mg/kg/day, po administered via gavage for 14 days and measured for 28 days; assay type: organism-based; conditions: in vivo, 672 h
[32] = Subacute toxicity in PND21 Sprague-Dawley rat assessed as quadriplegia at 100 mg/kg/day, po administered via gavage for 14 days and measured for 28 days; assay type: organism-based; conditions: in vivo, 672 h
[33] = Subacute toxicity in PND21 Sprague-Dawley rat assessed as hair loss at 100 mg/kg/day, po administered via gavage for 14 days and measured for 28 days; assay type: organism-based; conditions: in vivo, 672 h
[34] = rat, in vivo, ip, 5 mg/kg, 24 h
Description: AUC (0 to t) in Sprague-Dawley rat at 5 mg/kg, ip administered as single dose measured upto 24 hrs by LC-MS/MS analysis

in vivo [35] = conditions: Sprague-Dawley, rat, ip, 5 mg/kg
Description: Apparent half-life of the terminal disposition phase in Sprague-Dawley rat at 5 mg/kg, ip administered as single dose measured upto 24 hrs by LC-MS/MS analysis

in vivo [36] = conditions: Sprague-Dawley, rat, ip, 5 mg/kg; remark: listed apart in the source
Description: Tmax in Sprague-Dawley rat at 5 mg/kg, ip administered as single dose measured upto 24 hrs by LC-MS/MS analysis

in vivo [37] = conditions: Sprague-Dawley, rat, ip, 5 mg/kg; remark: listed apart in the source
Description: Apparent clearance during terminal phase in Sprague-Dawley rat at 5 mg/kg, ip administered as single dose measured upto 24 hrs by LC-MS/MS analysis

in vivo [38] = conditions: Sprague-Dawley, rat, ip, 5 mg/kg; remark: listed apart in the source
Description: Cmax in Sprague-Dawley rat at 5 mg/kg, ip administered as single dose measured upto 24 hrs by LC-MS/MS analysis

in vivo [39] = conditions: zebrafish
Description: Acute toxicity in juvenile zebrafish assessed as fatality rate at 150 uM after 24 hrs

in vivo [40] = conditions: zebrafish; remark: listed apart in the source
Description: Acute toxicity in juvenile zebrafish assessed as fatality rate at 150 uM after 48 hrs

CCO/N=C/c1ccc(OCCC(C)CCN2CCN(c3ccnc(N)c3)C2=O)cc1 (stereo unspecified)
half-life [1]: 179 min | EC50 [2]: 0.025 nM | CC50 at 24 h [3]: 29.4 µM | mortality at 24 h, 200 µM [4]: 100% | mortality at 24 h, 20 µM [5]: 100% | survival at 672 h [6]: 100% | Activity [7]: Toxic | Activity [8]: Toxic | Activity [9]: Toxic | Activity [10]: Toxic | Activity [11]: Toxic | Activity [12]: Toxic | microsomal CLint at 5 h [13]: 38.9 µL/min/mg | bioavailability at 24 h [14]: 85% | AUCt [15]: 60.8 µg·h/L | AUCt [16]: 222 µg·h/L | half-life [17]: 30 min | Tmax [18]: 1 h | CLz/F [19]: 0.79 L/h/kg | CL/F [20]: 1600 mL/min/kg | Cmax [21]: 23.3 ng/mL | Cmax [22]: 81.8 ng/mL | bioavailability [23]: 73.3% | Activity (Enterovirus A71): 100% | mortality at 24 h, 50 µM [24]: 100% | mortality at 24 h, 100 µM [25]: 100% | mortality at 48 h, 20 µM [26]: 100% | mortality at 48 h, 50 µM [27]: 100% | mortality at 48 h, 100 µM [28]: 100% | mortality at 48 h, 200 µM [29]: 100% | survival at 672 h [30]: 100% | Activity [31]: Toxic | Activity [32]: Toxic | Activity [33]: Toxic | AUCt [34]: 258 µg·h/L | half-life at 24 h (in vivo [35]): 158 min | Tmax at 24 h (in vivo [36]): 30 min | CL/F at 24 h (in vivo [37]): 381 mL/min/kg | Cmax at 24 h (in vivo [38]): 149 ng/mL | mortality at 24 h, 150 µM (in vivo [39]): 100% | mortality at 48 h, 150 µM (in vivo [40]): 100%
